Where two headings read alike, the source gives them in different places.
Experiments:
[1] = tested on: monoclonal antibody (catalytic receptor) produced by hybridoma 37E8, ATCC HB 10868; type: biochemical, mouse
[2] = target: T1, Butyl Cholinesterase EC 3.1.1.8, from horse serum (Sigma) (Equus caballus, UniProt P81908); assay: Hydrolysis of Compound 1 by authentic butyl cholinesterase, assayed by gas chromatography; type: biochemical
T1 construct: purchased Sigma Chemical Co., St. Louis
Method: The production of Compound 2 by a monoclonal antibody composition of this invention was assayed at a concentration of 10 μM monoclonal antibody and 1 mM Compound 1 in pH 8.0 ATE buffer (0.52M ACES, 0.52M Tris, 0.01M ethanolamine) at 37° C. The initial rate of hydrolysis of Compound 1 by the monoclonal antibodies produced by hybridoma 37E8 followed Michaelis-Menten kinetics (Table 1 hereinafter).
The conditions used for this study were as follows. Monoclonal antibodies produced by hybridoma 37E8 (10 μM) were added to a solution of 800 μM Compound 1 and 25 μM Compound C. Under these conditions, the substrate concentration was at saturation for the monoclonal antibody (4.5Km) and at approximately Km for either cholinesterase.
^b EC 3.1.1.8. From horse serum (Sigma Chemical Co., St. Louis),
All assays consisted of determining the amount of Compound 2 by gas chromatography analysis (Hewlett Packard 5890A, carbowax 30 m, 0.53 mm bore, capillary column) with ethyl levulinate as an internal standard.

[3] = target: Acetyl Cholinesterase EC 3.1.1.7, Type VS, electric eel (Sigma) (Electrophorus electricus, UniProt O42275); assay: Hydrolysis of Compound 1 by authentic acetyl cholinesterase, assayed by gas chromatography
Sequence of Acetyl Cholinesterase EC 3.1.1.7, Type VS, electric eel (Sigma) (O42275 24-633): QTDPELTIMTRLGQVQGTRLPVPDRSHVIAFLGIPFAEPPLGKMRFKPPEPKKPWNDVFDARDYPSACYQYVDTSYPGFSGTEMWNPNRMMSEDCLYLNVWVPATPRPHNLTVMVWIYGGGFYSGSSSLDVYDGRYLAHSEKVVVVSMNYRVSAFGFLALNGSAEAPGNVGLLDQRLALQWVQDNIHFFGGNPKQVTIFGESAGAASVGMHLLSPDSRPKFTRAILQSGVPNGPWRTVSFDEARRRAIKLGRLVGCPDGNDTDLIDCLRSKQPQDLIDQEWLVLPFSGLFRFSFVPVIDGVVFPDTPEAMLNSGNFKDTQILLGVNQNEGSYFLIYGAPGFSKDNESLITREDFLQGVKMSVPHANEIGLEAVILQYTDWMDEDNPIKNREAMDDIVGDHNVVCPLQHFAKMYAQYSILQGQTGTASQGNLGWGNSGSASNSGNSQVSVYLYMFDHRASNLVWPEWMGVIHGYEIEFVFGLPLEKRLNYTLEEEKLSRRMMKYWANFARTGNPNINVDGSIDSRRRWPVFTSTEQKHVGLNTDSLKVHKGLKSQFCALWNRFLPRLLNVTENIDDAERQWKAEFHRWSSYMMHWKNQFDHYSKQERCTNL

T1 sequence (P81908 whole entry): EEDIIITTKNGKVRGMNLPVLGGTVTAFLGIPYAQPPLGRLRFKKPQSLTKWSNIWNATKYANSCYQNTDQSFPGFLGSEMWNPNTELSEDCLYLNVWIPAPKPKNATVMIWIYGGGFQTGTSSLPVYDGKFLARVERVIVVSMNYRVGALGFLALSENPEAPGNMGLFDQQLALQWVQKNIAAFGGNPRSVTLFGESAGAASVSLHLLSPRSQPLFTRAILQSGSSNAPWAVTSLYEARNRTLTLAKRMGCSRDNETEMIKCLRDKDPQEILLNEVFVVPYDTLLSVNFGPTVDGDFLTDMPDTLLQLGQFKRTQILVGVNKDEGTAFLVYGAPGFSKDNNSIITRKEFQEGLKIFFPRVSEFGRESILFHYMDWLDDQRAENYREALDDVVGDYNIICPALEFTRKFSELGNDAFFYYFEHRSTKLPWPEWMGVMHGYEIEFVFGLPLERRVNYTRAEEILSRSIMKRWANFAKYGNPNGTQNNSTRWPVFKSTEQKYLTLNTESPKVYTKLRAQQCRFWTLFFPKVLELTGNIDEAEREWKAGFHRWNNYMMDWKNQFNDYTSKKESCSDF

Row | Structure (SMILES) | kcat (hydrolysis of Compound 1) ([1]; pH 8) | Km ([1]; pH 8, read-out: Km (hydrolysis of Compound 1)) | inhibition of the hydrolytic reaction by free Compound C [1] | Ki ([1]; read-out: Ki (free Compound C)) | Ki ([1]; read-out: ki (inhibition of hydrolysis of Compound 1 by free Compound C)) | inhibition by free Compound C ([2]; 800 μM Compound 1, 25 μM Compound C) | Ki ([2]; 0.0117 units enzyme used, read-out: ki (hydrolysis of Compound 1, inhibitor Compound C)) | Ki [3] | inhibition by free Compound C [3]
1 | CC(=O)O[C@@H]1C=C[C@H](OC(C)=O)C1 [Compound 1, cis-3,5-diactoxycyclopent-1-ene] | 0.007 | 177 µM |  |  |  |  |  |  | 
2 | CC(=O)O[C@H]1C=C[C@@H](OP(=O)(O)CCCCCC(=O)O)C1 [Compound C] |  |  | extensive inhibition | 7 µM | 7 µM | no inhibition | 800 µM | 630 µM | no inhibition

Reference: patent publication US5444155A, “Molecules with antibody combining sites that induce asymmetry” (The Scripps Research Institute, priority 1991, dated 1995)
